# According to patent US4871774A, “Medical treatment” (The Boots Company PLC, priority 1987, dated 1989):
# Where two headings read alike, the source gives them in different places.
# Tests used:
# [1] = system: dopamine reuptake; depletion of brain dopamine; test: In vivo inhibition of dopamine reuptake (prevention of α-methyl-m-tyrosine-induced depletion of brain dopamine); parameters: species or system rat (Sprague-Dawley); details: oral, three doses
# Description: An in vivo test for dopamine reuptake inhibition relies on the fact that such reuptake inhibitors can prevent the entry of dopamine-depleting agents into neurons. Depleting agents interfere with the neuronal storage mechanism for dopamine so dopamine leaks into the cytoplasm where it is metabolised by monoamine oxidase. Depleting agents therefore induce a large reduction in brain dopamine levels which can be measured experimentally. Prior treatment with a dopamine reuptake inhibitor reduces the depletion of dopamine levels caused by subsequent administration of a depleting agent such as α-methyl-m-tyrosine.
# Male Sprague-Dawley rats (180-220 g: Charles River) were randomly assigned to various treatment groups. […] Thirty minutes later, one vehicle treated group and all the test groups were given an i.p. injection (2 ml/kg) of the depleting agent α-methyl-m-tyrosine (25 mg/kg; Sigma Chemical Co.). […]
# Brain samples were thawed and homogenised in 4 volumes of 0.4M perchloric acid containing sodium metabisulphite (0.4 mM) and the internal standard 3,4-dihydroxybenzylamine (0.8 μM). […] Supernatants were removed and their dopamine concentration determined using an HPLC (high pressure liquid chromatography) system with fluorimetric detection.
# The percentage prevention (P) of depletion of brain dopamine levels by test compounds is calculated from the formula [formula] […]
# [2] = system: brain DOPAC (turnover of dopamine); test: Turnover of dopamine in rodent brains by determination of DOPAC concentrations (mouse); format: in vivo, mouse (CD1); details: whole brain, 10 mg/kg oral, 2 h
# Description: (7) Measurement of the turnover of dopamine in rodent brains by determination of DOPAC concentrations following drug administration
# Inhibition of dopamine reuptake in the brain reduces the rate at which dopamine is synthesised and metabolised (the turnover rate). This can be assessed by measuring the amount of the dopamine metabolite DOPAC (dihydroxyphenylacetic acid) which accumulates in the brains of rats and mice. In addition, the administration of probenecid blocks active transport of DOPAC out of the brain. The subsequent rise in brain DOPAC concentrations is attenuated by drugs which inhibit dopamine reuptake.
# One group of animals was killed two hours later. […] Aliquots (50 μl) of the clear supernatants were then injected automatically into the chromatographic system for the separation and quantification of DOPAC.
# High pressure liquid chromatography (HPLC) combined with electrochemical detection (ECD) was employed to assay DOPAC. […] The controller was set at 20 nA full-scale and output from the cell recorded using a Spectra-Physics 4100 automatic computing integrator. Quantification of DOPAC was effected by the computing integrator after calibration of the HPLC-ECD system using DOPAC of known concentration and including isoprenaline as an internal standard. […]
# plasma dopamine level = test: Dopamine level in the plasma of human subjects; format: in vivo; details: for Dopamine levels: human plasma, 2 h after administration
# Description: The mean value of domamine in picograms/ml is set out below at days 1, 4 and 7. Eight human subjects who were given placebo tablets provides plasma samples from which the mean control dopamine levels given below were obtained.
# [3] = system: uptake of dopamine into striatal synaptosomes; test: In vitro inhibition of dopamine uptake (14C-dopamine, rat striatal synaptosomes); format: biochemical, rat (Sprague-Dawley); details: for IC50: 0.17 μM 14C-dopamine
# Method: (1) In vitro inhibition of dopamine uptake
# Male Sprague-Dawley rats (Charles River) were killed by cervical dislocation and the brains removed and placed in an ice-cold oxygenated Krebs solution containing 120 mM NaCl, 4.7 mM KCl, 2.1 mM KH2 PO4, 1.2 mM CaCl2, 0.6 mM MgSO4, 25 mM NaHCO3 and 11 mM glucose. The brains were then dissected according to the method of Glowinski and Iversen [J. Neurochem. (1966) 13 655-669] and the striata removed. The samples of striata were pooled, weighed and transferred to a glass homogenising vessel on ice, containing oxygenated 0.32M sucrose solution (20 volumes). […] The homogenate was centrifuged at 1000×g for 10 minutes at 4° C. and the supernatant containing a suspension of synaptosomes was used in the dopamine uptake inhibition tests described below. […] A solution of ^14 C-dopamine hydrochloride (Amersham International) was added (0.2 ml) to give a final concentration of 0.17 μM. The incubation was continued for a further 5 minutes before the contents of the tubes were filtered under vacuum through Whatman GF/F filters which were washed with ice-cold Krebs solution (2×5 ml). The filters were placed in scintillation vials containing 10 ml scintillation fluid (ES-299 supplied by Packard Instruments) and the radioactivity in the vials counted on a Packard 4530 scintillation counter. In each experiment there was a control tube in which no test compound was present, 3 tubes in which the compound being tested was present at one of three concentrations (100, 10 and 1 μM) and a background tube containing no test compound which was maintained at 0° C. to determine passive ^14 C-dopamine uptake. The count for each tube was registered in counts per minute (cpm) and the % inhibition of uptake (I) calculated from the formula [formula] […] The concentration which gave 50% inhibition of uptake was then calculated and is given below as the IC50 figure for each experiment.
# [4] = system: uptake of dopamine into synaptosomes from rat striata; test: Inhibition of dopamine uptake in vitro by plasma from drug treated rats obtained over a period of time after a single 30 mg/kg dose; format: biochemical; details: for % Inhibition of dopamine uptake - Mean (± SEM): 30 mg/kg oral
# Method: (4) Inhibition of dopamine uptake in vitro by plasma from drug treated rats obtained over a period of time after a single 30 mg/kg dose
# The percentage inhibition of dopamine uptake was determined in a similar manner to that described in (3) above. […]
smiles,measurement,setting,value
"CC(C)CC(N(C)C)C1(c2ccc(Cl)cc2)CCC1.Cl.O (stereo not shown) [N,N-dimethyl-1-[1-(4-chlorophenyl)cyclobutyl]-3-methylbutylamine hydrochloride monohydrate]",prevention of brain dopamine depletion (in words),[1],dose-dependent prevention of brain dopamine depletion
same,Brain DOPAC Levels,"[2]; A (drug alone), control 74 ± 5",54 ± 3 ng/g wet wt
same,Brain DOPAC Levels,"[2]; B (with probenecid 200 mg/kg i.p.), control 116 ± 8",54 ± 3 ng/g wet wt
same,Dopamine levels,"plasma dopamine level; Day 1, 30 mg per day, control 122",254 pg/mL
same,Dopamine levels,"plasma dopamine level; Day 4, 30 mg per day, control 110",294 pg/mL
same,Dopamine levels,"plasma dopamine level; Day 7, 30 mg per day, control 118",219 pg/mL
same,plasma dopamine levels (in words),"plasma dopamine level; human subjects, 30 mg dose",plasma dopamine levels had increased
same,% Inhibition of uptake,"[3]; 1 μM, Ex.1",31%
same,% Inhibition of uptake,"[3]; 1 μM, Ex.2",4%
same,% Inhibition of uptake,"[3]; 1 μM, Ex.3",12%
same,% Inhibition of uptake,"[3]; 10 μM, Ex.1",70%
same,% Inhibition of uptake,"[3]; 10 μM, Ex.2",35%
same,% Inhibition of uptake,"[3]; 10 μM, Ex.3",48%
same,% Inhibition of uptake,"[3]; 100 μM, Ex.1",96%
same,% Inhibition of uptake,"[3]; 100 μM, Ex.2",81%
same,% Inhibition of uptake,"[3]; 100 μM, Ex.3",86%
same,inhibition of 14C-dopamine uptake (in words),"[3]; 100, 10 and 1 μM",inhibited ^14 C-dopamine uptake in a concentration-dependent manner
same,IC50,"[3]; Ex.1, 37° C., read-out: IC50",3.3 µM
same,IC50,"[3]; Ex.2, 37° C., read-out: IC50",18 µM
same,IC50,"[3]; Ex.3, 37° C., read-out: IC50",11 µM
same,IC50,"[3]; mean of three replicate experiments, read-out: mean (±SEM) IC50 value for inhibition of dopamine uptake",11 ± 4.2 µM
same,% Inhibition of dopamine uptake - Mean (± SEM),[4]; 1 hr after dosing,45.0 ± 4.1%
same,% Inhibition of dopamine uptake - Mean (± SEM),[4]; 3 hrs after dosing,63.0 ± 1.7%
same,% Inhibition of dopamine uptake - Mean (± SEM),[4]; 8 hrs after dosing,73.4 ± 3.5%
same,% Inhibition of dopamine uptake - Mean (± SEM),[4]; 24 hrs after dosing,31.5 ± 2.4%
same,% Inhibition of dopamine uptake - Mean (± SEM),[4]; 48 hrs after dosing,19.5 ± 5.2%
same,% Inhibition of dopamine uptake - Mean (± SEM),[4]; 72 hrs after dosing,10.4 ± 1.6%
same,persistence of inhibition of dopamine uptake by rat plasma (in words),[4]; single 30 mg/kg oral dose,persists for a considerable period of time after dosing
